From patent US20090068290A1, “BIFEPRUNOX DOSES FOR TREATING SCHIZOPHRENIA” (priority 2006, published 2009)

Columns and labels:
Format in all cases: in vivo, human
[1] = system: adult subjects with schizophrenia; assay: Adverse events (TEAE, SAE, special interest, EPS-related TEAE), Clinical Study Two
Protocol: (§1) Subjects who completed this study had the option to continue in the long-term. […] Risperidone-treated subjects were titrated from 2 mg to 6 mg daily over a three-day period and were subsequently maintained at 6 mg/day for the remainder of the treatment period. […] Blood samples were also obtained at Screening/Baseline, Week 3, and Week 6 for clinical laboratory assessments.

[2] = system: adult subjects with schizophrenia; assay: PANSS responder rates, Clinical Study Three; details: for PANSS 20% definition response rate No, % / PANSS 20% definition response rate Yes, %: Week 6/Endpoint, LOCF; for 20% PANSS responder rate: Endpoint LOCF
Protocol: There were four treatment arms in this study, approximately 144 subjects per arm. […] After completing the Single-Blind Placebo Lead-in Period of at least three days, bifeprunox-treated subjects were titrated from 0.25 mg up to 20 mg/day or 30 mg/day according to a standardized titration scheme over a seven- or eight-day period, respectively. When the assigned dose was reached, subjects were maintained at that dose for the remainder of the six week treatment period. […] Subjects were hospitalized (if not already inpatients) after eligibility for study entry was verified, starting from the Screening Visit until at least 10 days after Baseline. Subjects could be hospitalized longer than 10 days if considered medically necessary by the Investigator. Rating scale assessments for efficacy and abnormal movement disorders were done weekly except for Week 5. Safety assessments were performed at Screening, during treatment and at the end of the study. Subject satisfaction with study medication was assessed at Week 6. Samples of whole blood were obtained at Weeks 2, 4, and 6 for determination of bifeprunox in plasma.
CLINICAL STUDY THREE. A PANSS responder was defined as a subject whose PANSS total score decreased by 20% or more from Baseline to Endpoint. As exploratory analyses, responder rates were also analyzed using a 30%, 35%, 40%, and 50% definition of responder.

[3] = system: adult subjects with schizophrenia; assay: CGI Severity of Illness score, Clinical Study Two; details: for Change from Baseline in CGI Severity of Illness Score, Mean (SD) / Change from Baseline in CGI Severity of Illness Score, Median / Change from Baseline in CGI Severity of Illness Score, Trt Effect (bifeprunox—placebo) / mean change (SD) from Baseline to Endpoint in CGI severity of illness score: LOCF; for Change from Baseline in CGI Severity of Illness Score, Mean (SD) / Change from Baseline in CGI Severity of Illness Score, Median / Change from Baseline in CGI Severity of Illness Score, Trt Effect (bifeprunox—placebo): ITT population; for CGI severity of illness score, treatment effect (bifeprunox—placebo): Endpoint LOCF; for mean change (SD) from Baseline to Endpoint in CGI severity of illness score: ITT
Protocol: Rating scale assessments were performed weekly, except for week 5, to measure the change from baseline to endpoint of the PANSS total score. Other assessments included: PANSS positive symptom subscale score, PANSS negative symptom subscale score, PANSS general pschopathology subscale score, BPRS total score, BPRS psychosis score, the CGI-S score, the CGI-I score, responder rates based on the PANSS total score, and the Calgary Depression Scale for Schizophrenia (CDSS). […]
as §1

[4] = system: adult subjects with schizophrenia; assay: PANSS positive subscale score, Clinical Study One; details: ITT; for PANSS Positive Subscale Score, Trt Effect (bifeprunox—placebo): ANCOVA
Protocol: There were five treatment groups in this study. […] Study medication was administered once daily. After Baseline measurements were performed, the titration phase was begun. Bifeprunox treated subjects were titrated up to 5 mg, 10 mg or 20 mg according to a standardized titration schedule (Day 1: 0.125 mg, Day 2: 0.25 mg, Day 3: 0.5 mg, Day 4: 1.0 mg, Day 5: 2.0 mg, Day 6: 5.0 mg, Day 7: 10.0 mg, Day 8: 20 mg). When the assigned dose was reached, subjects were maintained at that dose for the remainder of the six-week treatment period.
The change in the Positive and Negative Symptom Scale (PANSS) total score, from baseline to endpoint, was the primary outcome measure. Secondary efficacy measures included: PANSS positive, PANSS negative, PANSS general psychopathology (GPP) score, PANSS-derived Brief Psychiatric Rating Scale (BPRS) score, Clinical Global Impressions-Severity of Illness (CGI-S), CGI-Improvement (CGI-I) scores, and responder rates. Safety and tolerability evaluations included extrapyramidal symptoms (EPS), weight gain, lipid profile, and serum prolactin.

[5] = Bifeprunox 30 mg, Week 6/Endpoint
[6] = Bifeprunox 40 mg, Week 6/Endpoint
[7] = Bifeprunox 10 mg, Endpoint LOCF
[8] = Bifeprunox 20 mg, Endpoint LOCF

In the case of O=c1[nH]c2cccc(N3CCN(Cc4cccc(-c5ccccc5)c4)CC3)c2o1 [Bifeprunox, 7-[4-([1,1′-biphenyl]-3-ylmethyl)-1-piperazinyl]-2(3H)-benzoxazolone], the safety and tolerability ([1]; bifeprunox 30 mg and 40 mg, 6 weeks) is reported as “safe and well tolerated”, the “incidence of severe TEAE of schizophrenia” value ([1]; bifeprunox groups (30, 40 mg)) is reported as 3% and the “PANSS 20% definition response rate No, %” value ([2]; 20 mg) is reported as 58%. The “PANSS 20% definition response rate Yes, %” value ([2]; 20 mg) was 42%, the “PANSS 20% definition response rate No, %” value ([2]; 30 mg) was 61% and the “PANSS 20% definition response rate Yes, %” value ([2]; 30 mg) was 39%. The “20% PANSS responder rate” value ([2]; bifeprunox 20 mg) was 42%, the “20% PANSS responder rate” value ([2]; bifeprunox 30 mg) was 39% and the “Change from Baseline in CGI Severity of Illness Score, Mean (SD)” value (“Change from Baseline in CGI Severity … (SD)” below) ([3]; Bifeprunox 30 mg, Week 1) was −0.33 (0.77). The “Change from Baseline in CGI Severity of Illness Score, Median” value (shortened to “Change … of Illness Score, Median”) ([3]; Bifeprunox 30 mg, Week 1) was 0.0, the “Change from Baseline in CGI Severity … (SD)” value ([3]; Bifeprunox 30 mg, Week 2) was −0.58 (0.97) and the “Change … of Illness Score, Median” value ([3]; Bifeprunox 30 mg, Week 2) was 0.0. For the same molecule, the “Change from Baseline in CGI Severity … (SD)” value ([3]; Bifeprunox 30 mg, Week 3) was −0.67 (1.08), the “Change … of Illness Score, Median” value ([3]; Bifeprunox 30 mg, Week 3) was 0.0 and the “Change from Baseline in CGI Severity … (SD)” value ([3]; Bifeprunox 30 mg, Week 4) was −0.68 (1.11). The “Change … of Illness Score, Median” value ([3]; Bifeprunox 30 mg, Week 4) was 0.0, the “Change from Baseline in CGI Severity … (SD)” value [3, 5] was −0.69 (1.19) and the “Change … of Illness Score, Median” value [3, 5] was 0.0. For the same molecule, the “Change from Baseline in CGI Severity of Illness Score, Trt Effect (bifeprunox—placebo)” value [3, 5] was −0.28, the “Change from Baseline in CGI Severity … (SD)” value ([3]; Bifeprunox 40 mg, Week 1) was −0.28 (0.65) and the “Change … of Illness Score, Median” value ([3]; Bifeprunox 40 mg, Week 1) was 0.0. The “Change from Baseline in CGI Severity … (SD)” value ([3]; Bifeprunox 40 mg, Week 2) was −0.43 (0.90), the “Change … of Illness Score, Median” value ([3]; Bifeprunox 40 mg, Week 2) was 0.0 and the “Change from Baseline in CGI Severity … (SD)” value ([3]; Bifeprunox 40 mg, Week 3) was −0.54 (1.02). The “Change … of Illness Score, Median” value ([3]; Bifeprunox 40 mg, Week 3) was 0.0, the “Change from Baseline in CGI Severity … (SD)” value ([3]; Bifeprunox 40 mg, Week 4) was −0.51 (1.08) and the “Change … of Illness Score, Median” value ([3]; Bifeprunox 40 mg, Week 4) was 0.0. The “Change from Baseline in CGI Severity … (SD)” value [3, 6] was −0.54 (1.12), the “Change … of Illness Score, Median” value [3, 6] was 0.0 and the “Change from Baseline in CGI Severity of Illness Score, Trt Effect (bifeprunox—placebo)” value [3, 6] was −0.18. The “CGI severity of illness score, treatment effect (bifeprunox—placebo)” value ([3]; bifeprunox 30 mg) was −0.28, the “mean change (SD) from Baseline to Endpoint in CGI severity of illness score” value ([3]; bifeprunox 30 mg) was −0.69 (1.19) and the “CGI severity of illness score, treatment effect (bifeprunox—placebo)” value ([3]; bifeprunox 40 mg) was −0.18. The “mean change (SD) from Baseline to Endpoint in CGI severity of illness score” value ([3]; bifeprunox 40 mg) was −0.54 (1.12), the “Change from Baseline in PANSS Positive Subscale Score, Mean (S.D.)” value (“Change from Baseline … (S.D.)” below) ([4]; Bifeprunox 5 mg, Endpoint LOCF) was −3.2 (5.2) and the “Change from Baseline in PANSS Positive Subscale Score, Median” value ([4]; Bifeprunox 5 mg, Endpoint LOCF) was −3. For the same molecule, the “PANSS Positive Subscale Score, Trt Effect (bifeprunox—placebo)” value ([4]; Bifeprunox 5 mg, Endpoint LOCF) was −1.1, the “Change from Baseline … (S.D.)” value ([4]; Bifeprunox 5 mg, Week 1, LOCF) was −1.1 (3.4) and the “Change from Baseline in PANSS Positive Subscale Score, Median” value ([4]; Bifeprunox 5 mg, Week 1, LOCF) was −1. The “Change from Baseline … (S.D.)” value ([4]; Bifeprunox 5 mg, Week 2, LOCF) was −2.1 (4.0), the “Change from Baseline in PANSS Positive Subscale Score, Median” value ([4]; Bifeprunox 5 mg, Week 2, LOCF) was −2 and the “Change from Baseline … (S.D.)” value ([4]; Bifeprunox 5 mg, Week 3, LOCF) was −2.6 (4.7). For the same molecule, the “Change from Baseline in PANSS Positive Subscale Score, Median” value ([4]; Bifeprunox 5 mg, Week 3, LOCF) was −3, the “Change from Baseline … (S.D.)” value ([4]; Bifeprunox 5 mg, Week 4, LOCF) was −3.0 (5.0) and the “Change from Baseline in PANSS Positive Subscale Score, Median” value ([4]; Bifeprunox 5 mg, Week 4, LOCF) was −4. For the same molecule, the “Change from Baseline … (S.D.)” value [4, 7] was −1.4 (6.1), the “Change from Baseline in PANSS Positive Subscale Score, Median” value [4, 7] was −1 and the “PANSS Positive Subscale Score, Trt Effect (bifeprunox—placebo)” value [4, 7] was 0.7. The “Change from Baseline … (S.D.)” value ([4]; Bifeprunox 10 mg, Week 1, LOCF) was −0.6 (3.9), the “Change from Baseline in PANSS Positive Subscale Score, Median” value ([4]; Bifeprunox 10 mg, Week 1, LOCF) was −1 and the “Change from Baseline … (S.D.)” value ([4]; Bifeprunox 10 mg, Week 2, LOCF) was −1.2 (4.7). The “Change from Baseline in PANSS Positive Subscale Score, Median” value ([4]; Bifeprunox 10 mg, Week 2, LOCF) was −1, the “Change from Baseline … (S.D.)” value ([4]; Bifeprunox 10 mg, Week 3, LOCF) was −1.1 (5.5) and the “Change from Baseline in PANSS Positive Subscale Score, Median” value ([4]; Bifeprunox 10 mg, Week 3, LOCF) was −1. For the same molecule, the “Change from Baseline … (S.D.)” value ([4]; Bifeprunox 10 mg, Week 4, LOCF) was −1.1 (5.6), the “Change from Baseline in PANSS Positive Subscale Score, Median” value ([4]; Bifeprunox 10 mg, Week 4, LOCF) was −1 and the “Change from Baseline … (S.D.)” value [4, 8] was −3.5 (5.1). For the same molecule, the “Change from Baseline in PANSS Positive Subscale Score, Median” value [4, 8] was −3, the “PANSS Positive Subscale Score, Trt Effect (bifeprunox—placebo)” value [4, 8] was −1.5 and the “Change from Baseline … (S.D.)” value ([4]; Bifeprunox 20 mg, Week 1, LOCF) was −1.7 (3.5). For the same molecule, the “Change from Baseline in PANSS Positive Subscale Score, Median” value ([4]; Bifeprunox 20 mg, Week 1, LOCF) was −1, the “Change from Baseline … (S.D.)” value ([4]; Bifeprunox 20 mg, Week 2, LOCF) was −2.7 (4.3) and the “Change from Baseline in PANSS Positive Subscale Score, Median” value ([4]; Bifeprunox 20 mg, Week 2, LOCF) was −3. For the same molecule, the “Change from Baseline … (S.D.)” value ([4]; Bifeprunox 20 mg, Week 3, LOCF) was −3.3 (4.4), the “Change from Baseline in PANSS Positive Subscale Score, Median” value ([4]; Bifeprunox 20 mg, Week 3, LOCF) was −3 and the “Change from Baseline … (S.D.)” value ([4]; Bifeprunox 20 mg, Week 4, LOCF) was −3.5 (4.8). For the same molecule, the “Change from Baseline in PANSS Positive Subscale Score, Median” value ([4]; Bifeprunox 20 mg, Week 4, LOCF) was −3.
